One experiment addresses T1, 5-HT1B (Rattus norvegicus, UniProt P28564).
T1 construct: from tissue; host or cells: rat cerebral cortex
Put plainly: 5-HT1B binding assay (agonist radioligand), rat cerebral cortex. The following applies: Table 11, rat 1B receptor binding. As for the experimental part:
5-HT1D binding assays (agonist radioligand) were performed using bovine caudate membranes according to the methods of Heuring and Peroutka (J. Neurosci., 7: 894-903 (1987)). 5-HT1B (rat cerebral cortex) binding assays (agonist radioligand) were performed according to the method of Hoyer et. al. (Eur. J. Pharmacol., 118: 1-12 (1995)). For the purpose of result analysis, the specific ligand binding to the receptors is defined as the difference between the total binding and the nonspecific binding as determined in the presence of an excess of unlabelled ligand. The results are expressed as a percent of control specific binding obtained in the presence of the test compounds. IC50 values (concentration causing a half-maximal inhibition of control specific binding) and Hill coefficients (nH) were determined by non-linear regression analysis of the competition curves using Hill equation curve fitting and the inhibition constants (Ki) were calculated from the Cheng Prusoff equation (Ki=IC50/(1+(L/KD)), where L=concentration of radioligand in the assay, and KD=affinity of the radioligand for the receptor).

The target in experiment [1] is Recombinant human inducible NOS (iNOS) (Homo sapiens, UniProt P35228). Put plainly: Human iNOS assay, radiometric. It is filed as biochemical. As to conditions: Table 10, human iNOS; read-out: iNOSh. As for the experimental part:
Recombinant human inducible NOS (iNOS) was produced in Baculovirus-infected Sf9 cells (ALEXIS). […] 15 μL of test substances are added to the mixture with the specific enzyme and pre-incubated at RT for 15 min. • 2. […] The incubation is carried out at 37° C. for 45 min. • 4. […] An aliquot 70 μL of the supernatant is added to 100 μL scintillation fluid. • 8.
The total volume of the reaction mixture is 150 μL in every well. All assays are performed at least in duplicate. Standard deviations are 10% or less.

For experiment [2], the system named is rats with L5/L6 spinal nerve ligation. The experiment can be described thus: Chung spinal nerve ligation (SNL) model of neuropathic-like pain. It is filed as in vivo. The following applies: rat, 30 mg/kg i.p. As for the experimental part: (a) Chung Model of Injury-induced Neuropathic-like Pain: The experimental designs for the Chung Spinal Nerve Ligation SNL Model assay for neuropathic pain are depicted in the Figure below. Nerve ligation injury was performed according to the method described by Kim and Chung (Kim and Chung, Pain 50:355-363, 1992). This technique produces signs of neuropathic dysesthesias, including tactile allodynia, thermal hyperalgesia, and guarding of the affected paw. Rats were anesthetized with halothane, and the vertebrae over the L4 to S2 region were exposed. The L5 and L6 spinal nerves were exposed, carefully isolated, and tightly ligated with 4-0 silk suture distal to the DRG. After ensuring homeostatic stability, the wounds were sutured, and the animals allowed to recover in individual cages. Sham-operated rats were prepared in an identical fashion except that the L5/L6 spinal nerves were not ligated. […] After a period of recovery following the surgical intervention, rats show enhanced sensitivity to painful and normally non-painful stimuli.

Experiment [3] deals with T2, Nitric oxide synthase (endothelial, human recombinant) eNOS (Homo sapiens, UniProt P29474).
T2 construct: purchased Axxora LLC ALX-201-070
T2 sequence (P29474 whole entry): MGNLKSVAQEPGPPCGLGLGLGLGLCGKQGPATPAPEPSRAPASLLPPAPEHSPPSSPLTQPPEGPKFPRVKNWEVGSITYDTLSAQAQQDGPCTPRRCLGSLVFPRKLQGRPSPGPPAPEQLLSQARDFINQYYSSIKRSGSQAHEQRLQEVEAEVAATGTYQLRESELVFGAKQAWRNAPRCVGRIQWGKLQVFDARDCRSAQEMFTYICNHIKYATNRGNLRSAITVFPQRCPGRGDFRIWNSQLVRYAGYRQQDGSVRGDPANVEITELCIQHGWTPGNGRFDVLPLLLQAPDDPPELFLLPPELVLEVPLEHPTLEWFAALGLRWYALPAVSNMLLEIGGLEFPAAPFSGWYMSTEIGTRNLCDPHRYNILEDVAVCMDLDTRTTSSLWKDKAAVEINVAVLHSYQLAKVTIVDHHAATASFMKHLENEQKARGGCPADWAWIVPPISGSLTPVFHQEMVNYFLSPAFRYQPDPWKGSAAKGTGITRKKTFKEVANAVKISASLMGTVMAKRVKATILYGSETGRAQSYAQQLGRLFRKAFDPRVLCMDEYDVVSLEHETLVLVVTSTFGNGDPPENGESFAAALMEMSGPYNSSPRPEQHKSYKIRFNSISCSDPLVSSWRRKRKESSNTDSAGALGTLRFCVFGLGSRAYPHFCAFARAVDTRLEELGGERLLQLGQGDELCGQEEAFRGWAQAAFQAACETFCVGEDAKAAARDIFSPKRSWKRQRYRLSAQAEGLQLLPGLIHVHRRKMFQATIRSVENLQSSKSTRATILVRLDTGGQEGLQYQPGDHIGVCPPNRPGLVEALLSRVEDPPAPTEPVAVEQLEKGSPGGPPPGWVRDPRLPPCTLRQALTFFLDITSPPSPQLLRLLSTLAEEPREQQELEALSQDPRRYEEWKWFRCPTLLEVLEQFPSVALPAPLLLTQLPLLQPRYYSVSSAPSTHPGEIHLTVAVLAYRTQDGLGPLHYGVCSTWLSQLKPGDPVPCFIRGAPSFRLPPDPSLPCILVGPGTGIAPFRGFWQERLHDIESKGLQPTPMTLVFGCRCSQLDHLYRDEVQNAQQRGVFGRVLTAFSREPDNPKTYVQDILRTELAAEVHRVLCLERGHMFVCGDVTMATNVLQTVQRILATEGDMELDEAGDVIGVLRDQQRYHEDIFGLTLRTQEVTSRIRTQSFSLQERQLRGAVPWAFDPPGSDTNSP
The experiment can be described thus: eNOS (human) enzyme assay, [3H]-L-arginine to L-citrulline. The class given is biochemical. As to conditions: Table 10, human eNOS; read-out: eNOSh.
Method: Human nNOS and eNOS Protocol:
Procedure for Human nNOS and eNOS
Primary stock solutions of test compounds at a concentration of 6 mM are prepared. The primary stock solutions of each test compound are prepared freshly in distilled water on the day of study. […] Concentration range of test compound utilized for nNOS are 0.001 to 300 μM and for eNOS are 0.003 to 1000 μM. The vehicle of the test compound or inhibitor is used as blank control. […] The IC50 concentration of L-NAME was run in parallel as a control.
All incubations are performed in duplicate:
Prepare the reaction mixture on ice by adding the following components with a micropipette to a polypropylene microcentrifuge tube:
Start the reaction by addition of the substrate (in 5 µL containing 1 μCi of [^3H]-L-Arginine+2.5 μM of unlabeled L-Arginine) to the reaction mixture. Total reaction volume is 60 μL.
Mix using a vortex mixer and incubate the above reaction mixture at 37° C. in an incubator for 30 minutes.
Add 400 μL of ice-cold Stop Buffer at the end of the incubation period to stop the reaction. (The EDTA in the Stop Buffer chelates all of the available calcium.)
Mix using a vortex mixer and transfer the reaction samples to spin cups and centrifuge using a microcentrifuge, at 13,000 rpm for 30 sec. at room temperature.
Remove the spin cups from the holder and transfer 450 μL of eluate (containing the unbound L-citrulline) to scintillation vials. Add 3 mL of scintillation fluid and quantify the radioactivity in a liquid scintillation counter.
Calculation of IC50 Values:
Data is analyzed using a Sigmoidal dose-response (variable slope) curve to determine the IC50 value of the test compound. Y=Bottom+(Top−Bottom)/(1+10^((Log IC50−X)*Hill Slope))

The values that follow come from patent US8673909B2, “Indole compounds and methods for treating visceral pain” (NeurAxon, Inc., priority 2007, dated 2014).

Molecules are shown by their SMILES. pIC50: −log10 of the molar value. “Also recorded” adds a separate entry of the source.

T1 sequence (P28564 whole entry): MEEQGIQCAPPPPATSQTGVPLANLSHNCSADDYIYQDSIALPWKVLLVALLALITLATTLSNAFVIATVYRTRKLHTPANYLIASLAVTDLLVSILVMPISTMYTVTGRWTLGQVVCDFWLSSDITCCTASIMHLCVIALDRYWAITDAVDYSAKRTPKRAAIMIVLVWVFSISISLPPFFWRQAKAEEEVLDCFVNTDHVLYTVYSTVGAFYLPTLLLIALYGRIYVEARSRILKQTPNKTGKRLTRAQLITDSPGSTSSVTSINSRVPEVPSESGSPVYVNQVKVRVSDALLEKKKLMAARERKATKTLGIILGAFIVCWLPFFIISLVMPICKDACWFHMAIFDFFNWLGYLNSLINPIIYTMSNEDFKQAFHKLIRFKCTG

For `CN1CCC(c2c[nH]c3ccc(NC(=N)c4cccs4)cc23)C1` (single isomer, unassigned) [Compound 6a, N-(3-(1-Methylpyrrolidin-3-yl)-1H-indol-5-yl)thiophene-2-carboximidamide], the pIC50 at 5-HT1B is 5.85; in experiment [1] it was 4.60; in experiment [3] it was 4.34. The “reversal of tactile hyperthesia” value in experiment [2] is listed as “not”. Besides, the “reversal of thermal hyperalgesia (antihyperalgesic effect)” value in experiment [2] is recorded as “only weakly”.
The corresponding values for `CN1CCC(c2c[nH]c3ccc(NC(=N)c4cccs4)cc23)C1` (single isomer, unassigned) [Compound 6b, N-(3-(1-Methylpyrrolidin-3-yl)-1H-indol-5-yl)thiophene-2-carboximidamide] are 6.15, 4.70, 4.69, “reversal of tactile hyperthesia” and “reversal of thermal hyperalgesia; also recorded: clear antihyperalgesic effect”.
